Results on 21 compounds are retold here after US20080139564A1, “SUBSTITUTED PHENYL PROPYL AMINES AS HISTAMINE H3 RECEPTOR AND SEROTONIN TRANSPORTER MODULATORS” (priority 2006, published 2008).

Where two headings read alike, the source gives them in different places.

Broadly, the Ki is the dissociation constant of the complex between target and ligand, obtained from inhibition or displacement. The low end stands for higher affinity, the high end for lower affinity.

Assay [1] addresses T1, Rat SERT (Rattus norvegicus, UniProt P31652).
T1 construct: A rat brain without cerebellum (Zivic Laboratories, Inc.—Pittsburgh, Pa.) was homogenized; tissue Zivic Laboratories, Inc; host or cells: rat brain without cerebellum
Briefly: Rat brain SERT binding ([3H]-Citalopram displacement, rat brain membranes). The note with it: 0.6 nM [3H]-Citalopram, 60 min at 25° C. The method, then:
A rat brain without cerebellum (Zivic Laboratories, Inc.—Pittsburgh, Pa.) was homogenized in a 52.6 mM Tris pH 8/126.4 mM NaCl/5.26 mM KCl mixture and centrifuged at 1,000 rpm for 5 min. The supernatant was removed and re-centrifuged at 15,000 rpm for 30 min. Pellets were re-homogenized in a 52.6 mM Tris pH8/126.4 mM NaCl/5.26 mM KCl mixture. Membranes were incubated with 0.6 nM [^3H]-Citalopram plus/minus test compounds for 60 min at 25° C. and harvested by rapid filtration over GF/C glass fiber filters (pretreated with 0.3% polyethylenimine) followed by four washes with ice-cold buffer. Nonspecific binding was defined in the presence of 100 μM fluoxetine.

The target of assay [2] is T2, human H3 receptor (Homo sapiens, UniProt Q9Y5N1).
T2 construct: expressed in transfected cells
T2 sequence (Q9Y5N1 whole entry): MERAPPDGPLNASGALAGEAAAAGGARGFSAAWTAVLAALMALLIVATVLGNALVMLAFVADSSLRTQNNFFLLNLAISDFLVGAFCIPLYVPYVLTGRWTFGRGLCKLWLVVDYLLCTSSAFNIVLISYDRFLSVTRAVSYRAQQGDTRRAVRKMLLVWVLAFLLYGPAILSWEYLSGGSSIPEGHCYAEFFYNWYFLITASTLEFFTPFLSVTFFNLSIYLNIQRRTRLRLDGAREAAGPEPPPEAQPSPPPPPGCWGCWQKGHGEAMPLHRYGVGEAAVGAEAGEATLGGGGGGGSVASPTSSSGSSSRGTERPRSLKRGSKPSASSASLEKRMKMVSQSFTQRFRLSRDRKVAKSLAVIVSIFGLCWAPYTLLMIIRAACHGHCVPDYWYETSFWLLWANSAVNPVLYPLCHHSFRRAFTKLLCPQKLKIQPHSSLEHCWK
The experiment in a line: Cyclic AMP accumulation (β-galactosidase reporter in SK-N-MC cells). In kind it is cell-based. Here is the method: Sublines of SK-N-MC cells were created that expressed a reporter construct and the human H3 receptor. The reporter gene (β-galactosidase) is under the control of multiple cyclic AMP responsive elements. In 96-well plates, histamine was added directly to the cell media followed 5 min later by an addition of forskolin (5 μM final concentration). When appropriate, antagonists were added 10 min prior to agonist addition. After a 6-h incubation at 37° C., the media was aspirated and the cells washed with 200 μL of phosphate-buffered saline followed by a second aspiration. Cells were lysed with 25 μL 0.1× assay buffer (10 mM Na-phosphate, pH 8, 0.2 mM MgSO4, 0.01 mM MnCl2) and incubated at rt for 10 min. Cells were then incubated for 10 min with 100 μL of 1× assay buffer containing 0.5% Triton and 40 mM β-mercaptoethanol. Color was developed using 25 μL of 1 mg/mL substrate solution (chlorophenolred β-D galactopyranoside; Roche Molecular Biochemicals, Indianapolis, Ind.). Color was quantitated on a microplate reader at absorbance 570 nm. The pA2 values were calculated by Schild regression analysis of the pEC50 values.

For assay [3], the target named is T3, human SERT (Homo sapiens, UniProt P31645).
T3 construct: expressed in transfected cells; host or cells: HEK293
T3 sequence (P31645 whole entry): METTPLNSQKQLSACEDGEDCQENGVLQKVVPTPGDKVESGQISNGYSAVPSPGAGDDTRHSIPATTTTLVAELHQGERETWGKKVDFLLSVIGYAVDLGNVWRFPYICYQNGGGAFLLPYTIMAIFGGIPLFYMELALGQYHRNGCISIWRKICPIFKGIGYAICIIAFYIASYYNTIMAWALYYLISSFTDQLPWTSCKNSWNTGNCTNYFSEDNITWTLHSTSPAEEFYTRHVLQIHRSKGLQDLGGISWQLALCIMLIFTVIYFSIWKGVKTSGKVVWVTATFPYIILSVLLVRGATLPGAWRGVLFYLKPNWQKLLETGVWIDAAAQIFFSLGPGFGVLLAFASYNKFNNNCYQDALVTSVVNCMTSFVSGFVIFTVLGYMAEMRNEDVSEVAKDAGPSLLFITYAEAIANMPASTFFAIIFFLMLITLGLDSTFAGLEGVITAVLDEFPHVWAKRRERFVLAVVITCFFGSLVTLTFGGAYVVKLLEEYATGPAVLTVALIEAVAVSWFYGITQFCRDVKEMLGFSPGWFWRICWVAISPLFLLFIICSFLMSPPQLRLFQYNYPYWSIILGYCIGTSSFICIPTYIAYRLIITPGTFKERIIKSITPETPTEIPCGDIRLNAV
The experiment in a line: Human SERT binding (3H-citalopram displacement, HEK293 membranes). As to conditions: 3H-citalopram 3.1 nM, rt for 1 h. Here is the method:
Homogenized HEK293 (Human Embryonic Kidney) membranes expressing the human SERT were incubated with ^3H-citalopram (SERT) at rt for 1 h in 50 mM Tris, 120 mM NaCl, 5 mM KCl (pH 7.4). Nonspecific binding was determined in the presence of 10 μM fluoxetine for the SERT. The membranes were washed and the radioactivity was counted as above. Calculations for Ki at the SERT were based on a Kd value for ^3H-citalopram and a ligand concentration of 3.1 nM.

Assay [4] has as its target T2, human H3 receptor. The experiment in a line: H3 receptor binding (N-[3H]-α-methylhistamine displacement, SK-N-MC cell membranes). As to conditions: 0.8 nM N-[3H]-α-methylhistamine, 60 min at 25° C. Here is the method:
Binding of compounds to the cloned human H3 receptor, stably expressed in SK-N-MC cells, was performed (Lovenberg, T. W. et al. J. Pharmacol. Exp. Ther. 2000, 293, 771-778). Briefly, cell pellets from SK-N-MC cells expressing the human H3 receptor were homogenized in 50 mM Tris-HCl/5 mM EDTA and re-centrifuged at 30,000 g for 30 min. Pellets were re-homogenized in 50 mM Tris/5 mM EDTA (pH 7.4). Membranes were incubated with 0.8 nM N—[^3H]-α-methylhistamine plus/minus test compounds for 60 min at 25° C. and harvested by rapid filtration over GF/C glass fiber filters (pretreated with 0.3% polyethylenimine) followed by four washes with ice-cold buffer. Nonspecific binding was defined in the presence of 10 μM histamine.

T1 sequence (P31652 whole entry): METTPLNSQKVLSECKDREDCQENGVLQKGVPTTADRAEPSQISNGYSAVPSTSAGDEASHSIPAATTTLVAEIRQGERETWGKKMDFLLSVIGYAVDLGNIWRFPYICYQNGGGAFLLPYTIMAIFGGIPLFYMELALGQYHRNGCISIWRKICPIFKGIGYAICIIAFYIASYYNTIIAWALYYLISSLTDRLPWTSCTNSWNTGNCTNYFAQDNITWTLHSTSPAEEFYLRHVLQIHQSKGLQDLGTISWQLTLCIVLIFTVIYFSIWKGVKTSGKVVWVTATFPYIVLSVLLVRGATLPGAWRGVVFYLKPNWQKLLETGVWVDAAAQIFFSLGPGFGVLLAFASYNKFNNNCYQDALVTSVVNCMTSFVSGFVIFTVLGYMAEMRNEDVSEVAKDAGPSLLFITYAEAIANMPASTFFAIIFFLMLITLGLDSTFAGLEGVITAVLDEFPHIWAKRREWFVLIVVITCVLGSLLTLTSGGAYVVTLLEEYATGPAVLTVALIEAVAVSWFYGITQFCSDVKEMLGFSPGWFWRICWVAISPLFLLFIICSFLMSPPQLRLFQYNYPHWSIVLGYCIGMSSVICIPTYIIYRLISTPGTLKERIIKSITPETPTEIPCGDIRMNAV

Regarding `CN(C)CCC(Oc1ccccc1)c1ccc(OCCCN2CCCCC2)cc1` (stereo not shown) [Example 1, Dimethyl-[3-phenoxy-3-[4-(3-piperidin-1-yl-propoxy)-phenyl]-propyl]-amine], the values for the Ki in assay [1], in assay [3] and in assay [4] were 1 nM, 26 nM and 0.7 nM, respectively. The Kb in assay [2] is 0.468 nM.

With `CN(C)CCC(Oc1ccccc1)c1ccc(CCCCN2CCCCC2)cc1` (stereo not shown) [Example 32, Dimethyl-{3-phenoxy-3-[4-(4-piperidin-1-yl-butyl)-phenyl]-propyl}-amine], the Ki was 7 nM in assay [1], 10 nM in assay [3] and 6 nM in assay [4]. Moreover, the Kb in assay [2] (read-out: pA2 (converted)) is 4.79 nM.

As to `CN(C)CCC(Oc1ccc(OCCCN2CCCCC2)cc1)c1ccc(C(F)(F)F)cc1` (stereo not shown) [Example 42, Dimethyl-[3-[4-(3-piperidin-1-yl-propoxy)-phenoxy]-3-(4-trifluoromethyl-phenyl)-propyl]-amine], the Ki in assay [1] is 9 nM; in assay [3], 180 nM; in assay [4] it was 2 nM. The Kb in assay [2] (read-out: pA2 (converted)) was 3.89 nM.

Take `CC(C)N1CCN(C(=O)c2ccc(C(CCN(C)C)Oc3ccccc3)cc2)CC1` (stereo not shown) [Example 38, [4-(3-Dimethylamino-1-phenoxy-propyl)-phenyl]-(4-isopropylpiperazin-1-yl)-methanone]: the Ki was 161 nM in assay [1], 245 nM in assay [3] and 0.7 nM in assay [4]. In assay [2] (read-out: pA2 (converted)), the Kb was 0.214 nM.

Take `CN(C)CCC(Oc1ccc(OCCCN2CCCCC2)cc1)c1ccccc1` (stereo not shown) [Example 41, Dimethyl-{3-phenyl-3-[4-(3-piperidin-1-yl-propoxy)-phenoxy]-propyl}-amine]: the inhibition constant (Ki) in assay [1] was determined as 18 nM; in assay [3], 282 nM; in assay [4], 1 nM. The Kb in assay [2] (read-out: pA2 (converted)) is 0.759 nM.

Regarding `COc1cccc(OC(CCN(C)C)c2ccc(OCCCN3CCCCC3)cc2)c1` (stereo not shown) [Example 13, {3-(3-Methoxy-phenoxy)-3-[4-(3-piperidin-1-yl-propoxy)-phenyl]-propyl}-dimethyl-amine], the inhibitory constant (Ki) in assay [1] worked out at 3 nM; in assay [3] it was 11 nM; in assay [4] it was 0.7 nM. For the same compound, in assay [2] (read-out: pA2 (converted)), the Kb is 0.617 nM.

As for `CNCCC(Oc1ccc(C(F)(F)F)cc1)c1ccc(OCCCN2CCCCC2)cc1` (stereo not shown) [Example 70, Methyl-[3-[4-(3-piperidin-1-yl-propoxy)-phenyl]-3-(4-trifluoromethyl-phenoxy)-propyl]-amine], the Ki in assay [1] was found to be 3 nM; in assay [3], 2 nM; in assay [4], 1 nM. In assay [2], this compound showed a Kb of 3.98 nM.

As for `CN(C)CCC(Oc1ccc(OCCCN2CCCCC2)cc1)c1ccc(Cl)cc1` (stereo not shown) [Example 43, {3-(4-Chloro-phenyl)-3-[4-(3-piperidin-1-yl-propoxy)-phenoxy]-propyl}-dimethyl-amine], the Ki is 23 nM in assay [1], 163 nM in assay [3] and 1 nM in assay [4]. Further, in assay [2] (read-out: pA2 (converted)), the Kb was 1.7 nM.

`CC(C)N1CCC(Oc2ccc(OC(CCN(C)C)c3ccccc3)cc2)CC1` (stereo not shown) [Example 44, {3-[4-(1-Isopropyl-piperidin-4-yloxy)-phenoxy]-3-phenyl-propyl}-dimethyl-amine]: the results for the Ki in assay [1], in assay [3] and in assay [4] were 18 nM, 90 nM and 0.9 nM, respectively. For the same compound, in assay [2] (read-out: pA2 (converted)), the Kb was 0.0977 nM.

Regarding `CN(C)CCC(Cc1ccccc1)c1ccc(OCCCN2CCCCC2)cc1` (stereo not shown) [Example 65, Dimethyl-{4-phenyl-3-[4-(3-piperidin-1-yl-propoxy)-phenyl]-butyl}-amine], the results for the Ki in assay [1], in assay [3] and in assay [4] were 1 nM, 14 nM and 0.8 nM, respectively. The Kb in assay [2] (read-out: pA2 (converted)) was 0.251 nM.

Consider `CC(C)N1CCN(Cc2ccc(C(CCN(C)C)Oc3ccccc3)cc2)CC1` (stereo not shown) [Example 56, {3-[4-(4-Isopropyl-piperazin-1-ylmethyl)-phenyl]-3-phenoxy-propyl}-dimethyl-amine], for which the inhibitory constant (Ki) in assay [1] is 14 nM; in assay [3] it was 133 nM; in assay [4] it was 1 nM. For the same compound, in assay [2] (read-out: pA2 (converted)), the Kb was 0.977 nM.

On to `CN(C)CCC(Oc1ccc(C#CCCN2CCCCC2)cc1)c1ccc(C(F)(F)F)cc1` (stereo not shown) [Example 60, Dimethyl-[3-[4-(4-piperidin-1-yl-but-1-ynyl)-phenoxy]-3-(4-trifluoromethyl-phenyl)-propyl]-amine], for which the results for the Ki in assay [1] and in assay [4] were 168 nM and 24 nM, respectively. Also, in assay [2] (read-out: pA2 (converted)), the Kb was 17.8 nM.

Turning to `CC(C)N1CCC(Oc2ccc(OC(CCN(C)C)c3ccc(C(F)(F)F)cc3)cc2)CC1` (stereo not shown) [Example 45, [3-[4-(1-Isopropyl-piperidin-4-yloxy)-phenoxy]-3-(4-trifluoromethylphenyl)-propyl]-dimethyl-amine], the inhibition constant (Ki) in assay [1] stood at 65 nM; in assay [4], 2 nM. Also, the Kb in assay [2] (read-out: pA2 (converted)) was 1.48 nM.

Take `NCCC(Oc1ccc(C(F)(F)F)cc1)c1ccc(OCCCN2CCCCC2)cc1` (stereo not shown) [Example 69, 3-[4-(3-Piperidin-1-yl-propoxy)-phenyl]-3-(4-trifluoromethylphenoxy)-propylamine]: the values for the inhibition constant (Ki) in assay [1], in assay [3] and in assay [4] were 5 nM, 1 nM and 8 nM, respectively. In addition, the Kb in assay [2] (read-out: pA2 (converted)) was 7.94 nM.

As for `CN(C)CCC(Oc1ccc(C#CCCN2CCCCC2)cc1)c1ccccc1` (stereo not shown) [Example 57, Dimethyl-{3-phenyl-3-[4-(4-piperidin-1-yl-but-1-ynyl)-phenoxy]-propyl}-amine], the inhibition constant Ki in assay [1] is 22 nM; in assay [3], 172 nM; in assay [4], 2 nM. In addition, in assay [2] (read-out: pA2 (converted)), the Kb was 2.19 nM.

With `CN(C)CCC(Oc1ccc2[nH]ccc2c1)c1ccc(OCCCN2CCCCC2)cc1` (stereo not shown) [Example 19, {3-(1H-Indol-5-yloxy)-3-[4-(3-piperidin-1-yl-propoxy)-phenyl]-propyl}-dimethyl-amine], the Ki in assay [1] is 44 nM; in assay [4], 1 nM. In addition, the Kb in assay [2] (read-out: pA2 (converted)) is 0.977 nM.

For the compound `CC(C)N1CCN(Cc2ccc(C(CCN(C)C)Oc3ccc(C(F)(F)F)cc3)cc2)CC1` (stereo not shown) [Example 55, [3-[4-(4-Isopropyl-piperazin-1-ylmethyl)-phenyl]-3-(4-trifluoromethyl-phenoxy)-propyl]-dimethyl-amine], the Ki in assay [1] was determined as 27 nM; in assay [4] it was 2 nM. The Kb in assay [2] (read-out: pA2 (converted)) is 9.33 nM.

For `CCC(C)N1CCN(C(=O)c2ccc(C(CCN(C)C)Oc3ccc(C(F)(F)F)cc3)cc2)CC1` (stereo not shown) [Example 52, (4-sec-Butyl-piperazin-1-yl)-{4-[3-dimethylamino-1-(4-trifluoromethyl-phenoxy)-propyl]-phenyl}-methanone], the inhibitory constant (Ki) in assay [1] is 33 nM; in assay [4], 2 nM. Also, the Kb in assay [2] (read-out: pA2 (converted)) was 1.2 nM.

With `CCC(CC)N1CCN(Cc2ccc(C(CCN(C)C)Oc3ccc(C(F)(F)F)cc3)cc2)CC1` (stereo not shown) [Example 54, [3-{4-[4-(1-Ethyl-propyl)-piperazin-1-ylmethyl]-phenyl}-3-(4-trifluoromethyl-phenoxy)-propyl]-dimethyl-amine], the inhibitory constant (Ki) is 37 nM in assay [1] and 5 nM in assay [4]. In addition, the Kb in assay [2] (read-out: pA2 (converted)) is 18.6 nM.

Regarding `CN(C)CCC(Oc1ccc(C(F)(F)F)cc1)c1ccc(CN2CCN(C3CCCC3)CC2)cc1` (stereo not shown) [Example 51, [3-[4-(4-Cyclopentyl-piperazin-1-ylmethyl)-phenyl]-3-(4-trifluoromethyl-phenoxy)-propyl]-dimethyl-amine], the results for the inhibitory constant (Ki) in assay [1] and in assay [4] were 30 nM and 7 nM, respectively. Besides, in assay [2] (read-out: pA2 (converted)), the Kb is 11.2 nM.

As to `CCC(CC)N1CCN(C(=O)c2ccc(C(CCN(C)C)Oc3ccc(C(F)(F)F)cc3)cc2)CC1` (stereo not shown) [Example 53, {4-[3-Dimethylamino-1-(4-trifluoromethyl-phenoxy)-propyl]-phenyl}-[4-(1-ethyl-propyl)-piperazin-1-yl]-methanone], the Ki was 102 nM in assay [1] and 8 nM in assay [4]. Also, in assay [2] (read-out: pA2 (converted)), the Kb is 2.45 nM.
